# According to the supplement of paper PMC10733146:
# Key:
# Test in all cases: viability relative to DMSO control (fraction); higher = less drug effect (more viable cells)
# Details in all cases: 48 h
# [1] = system: primary AML patient cells (S006)
# In short: (§1)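 Using 384-well plates with compounds already plated at five concentrations, one well per concentration, 4 × 10^4 primary mononuclear tumour cells were added per well. Cells were Ficoll-isolated from blood or bone marrow or came from processed lymph node, fresh or cryopreserved. They were kept for 48 h at 37 °C and 5% CO2 in RPMI-1640 supplemented with penicillin/streptomycin, L-glutamine and human serum, and viability was read as CellTiter-Glo luminescence relative to the median of 16 inner DMSO wells.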
# [2] = system: primary BL patient cells (S005)
# In short: as §1
# [3] = system: primary ALL patient cells (S048)
# In short: as §1
# [4] = system: primary AML patient cells (S012)
# In short: as §1
# [5] = system: primary AML patient cells (S025)
# In short: as §1
# [6] = system: primary MCL patient cells (S063)
# In short: as §1
# [7] = system: primary AML patient cells (S056)
# In short: as §1
# [8] = system: primary AML patient cells (S079)
# In short: as §1
# [9] = system: primary AML patient cells (S021)
# In short: as §1
# [10] = system: primary AML patient cells (S002)
# In short: as §1
# [11] = system: primary MCL patient cells (S053)
# In short: as §1
# [12] = system: primary AML patient cells (S072)
# In short: as §1
# [13] = system: primary FL patient cells (S022)
# In short: as §1
# [14] = system: primary MCL patient cells (S068)
# In short: as §1
# [15] = system: primary AML patient cells (S017)
# In short: as §1
# [16] = system: primary CLL patient cells (S043)
# In short: as §1
# [17] = system: primary T-PLL patient cells (S008)
# In short: as §1
# [18] = system: primary AML patient cells (S055)
# In short: as §1
# [19] = system: primary AML patient cells (S009)
# In short: as §1
# [20] = system: primary AML patient cells (S081)
# In short: as §1
smiles,measurement,setting,value
CC(C)(C)C[C@@H]1N[C@@H](C(=O)N[C@H]2CC[C@H](O)CC2)[C@H](c2cccc(Cl)c2F)[C@]12C(=O)Nc1cc(Cl)ccc12 [MI-773],viability,[1]; 0.008 µM,0.915
same,viability,[1]; 0.04 µM,0.761
same,viability,[1]; 0.2 µM,0.481
same,viability,[1]; 1 µM,0.194
same,viability,[1]; 5 µM,0.0491
same,viability,[2]; 0.008 µM,0.915
same,viability,[2]; 0.04 µM,0.744
same,viability,[2]; 0.2 µM,0.789
same,viability,[2]; 1 µM,0.897
same,viability,[2]; 5 µM,0.903
same,viability,[3]; 0.008 µM,1.01
same,viability,[3]; 0.04 µM,0.992
same,viability,[3]; 0.2 µM,0.799
same,viability,[3]; 1 µM,0.472
same,viability,[3]; 5 µM,0.0627
same,viability,[4]; 0.008 µM,0.96
same,viability,[4]; 0.04 µM,0.971
same,viability,[4]; 0.2 µM,0.937
same,viability,[4]; 1 µM,0.976
same,viability,[4]; 5 µM,1.02
same,viability,[5]; 0.008 µM,1.12
same,viability,[5]; 0.04 µM,0.901
same,viability,[5]; 0.2 µM,0.818
same,viability,[5]; 1 µM,0.421
same,viability,[5]; 5 µM,0.202
same,viability,[6]; 0.008 µM,1.07
same,viability,[6]; 0.04 µM,1.05
same,viability,[6]; 0.2 µM,0.995
same,viability,[6]; 1 µM,0.705
same,viability,[6]; 5 µM,0.246
same,viability,[7]; 0.008 µM,1.03
same,viability,[7]; 0.04 µM,0.9
same,viability,[7]; 0.2 µM,0.696
same,viability,[7]; 1 µM,0.296
same,viability,[7]; 5 µM,0.117
same,viability,[8]; 0.008 µM,1.01
same,viability,[8]; 0.04 µM,1.01
same,viability,[8]; 0.2 µM,1.01
same,viability,[8]; 1 µM,0.901
same,viability,[8]; 5 µM,0.636
same,viability,[9]; 0.008 µM,1
same,viability,[9]; 0.04 µM,0.966
same,viability,[9]; 0.2 µM,0.648
same,viability,[9]; 1 µM,0.46
same,viability,[9]; 5 µM,0.215
same,viability,[10]; 0.008 µM,0.994
same,viability,[10]; 0.04 µM,0.926
same,viability,[10]; 0.2 µM,0.688
same,viability,[10]; 1 µM,0.413
same,viability,[10]; 5 µM,0.253
same,viability,[11]; 0.008 µM,1.11
same,viability,[11]; 0.04 µM,0.915
same,viability,[11]; 0.2 µM,0.755
same,viability,[11]; 1 µM,0.424
same,viability,[11]; 5 µM,0.347
same,viability,[12]; 0.008 µM,1.06
same,viability,[12]; 0.04 µM,0.843
same,viability,[12]; 0.2 µM,0.934
same,viability,[12]; 1 µM,0.775
same,viability,[12]; 5 µM,0.762
same,viability,[13]; 0.008 µM,1.02
same,viability,[13]; 0.04 µM,0.934
same,viability,[13]; 0.2 µM,0.957
same,viability,[13]; 1 µM,0.947
same,viability,[13]; 5 µM,0.722
same,viability,[14]; 0.008 µM,1.08
same,viability,[14]; 0.04 µM,0.944
same,viability,[14]; 0.2 µM,0.986
same,viability,[14]; 1 µM,0.854
same,viability,[14]; 5 µM,0.68
same,viability,[15]; 0.008 µM,1.06
same,viability,[15]; 0.04 µM,0.896
same,viability,[15]; 0.2 µM,0.806
same,viability,[15]; 1 µM,0.877
same,viability,[15]; 5 µM,0.834
same,viability,[16]; 0.008 µM,1.05
same,viability,[16]; 0.04 µM,0.949
same,viability,[16]; 0.2 µM,1
same,viability,[16]; 1 µM,0.879
same,viability,[16]; 5 µM,0.441
same,viability,[17]; 0.008 µM,0.99
same,viability,[17]; 0.04 µM,0.946
same,viability,[17]; 0.2 µM,0.989
same,viability,[17]; 1 µM,0.677
same,viability,[17]; 5 µM,0.258
same,viability,[18]; 0.008 µM,1.01
same,viability,[18]; 0.04 µM,1.01
same,viability,[18]; 0.2 µM,0.997
same,viability,[18]; 1 µM,0.919
same,viability,[18]; 5 µM,0.409
same,viability,[19]; 0.008 µM,0.894
same,viability,[19]; 0.04 µM,0.755
same,viability,[19]; 0.2 µM,0.698
same,viability,[19]; 1 µM,0.56
same,viability,[19]; 5 µM,0.524
same,viability,[20]; 0.008 µM,1
same,viability,[20]; 0.04 µM,1.05
same,viability,[20]; 0.2 µM,1.11
same,viability,[20]; 1 µM,1.02
same,viability,[20]; 5 µM,1.12
Nc1ncn([C@H]2C[C@H](O)[C@@H](CO)O2)c(=O)n1 [Decitabine (Dacogen)],viability,[1]; 0.024 µM,0.971
same,viability,[1]; 0.12 µM,0.877
same,viability,[1]; 0.6 µM,1
same,viability,[1]; 3 µM,0.747
same,viability,[1]; 15 µM,0.716
same,viability,[2]; 0.024 µM,0.833
same,viability,[2]; 0.12 µM,1.27
same,viability,[2]; 0.6 µM,0.828
same,viability,[2]; 3 µM,1.27
same,viability,[2]; 15 µM,0.8
same,viability,[3]; 0.024 µM,0.967
same,viability,[3]; 0.12 µM,0.89
same,viability,[3]; 0.6 µM,0.938
same,viability,[3]; 3 µM,0.843
same,viability,[3]; 15 µM,0.82
same,viability,[4]; 0.024 µM,1
same,viability,[4]; 0.12 µM,0.92
same,viability,[4]; 0.6 µM,0.943
same,viability,[4]; 3 µM,0.945
same,viability,[4]; 15 µM,0.929
same,viability,[5]; 0.024 µM,0.968
same,viability,[5]; 0.12 µM,0.953
same,viability,[5]; 0.6 µM,0.912
same,viability,[5]; 3 µM,0.694
same,viability,[5]; 15 µM,0.535
same,viability,[6]; 0.024 µM,1.03
same,viability,[6]; 0.12 µM,0.985
same,viability,[6]; 0.6 µM,1.03
same,viability,[6]; 3 µM,0.974
same,viability,[6]; 15 µM,0.977
same,viability,[7]; 0.024 µM,0.971
same,viability,[7]; 0.12 µM,0.876
same,viability,[7]; 0.6 µM,0.912
same,viability,[7]; 3 µM,0.8
same,viability,[7]; 15 µM,0.766
same,viability,[8]; 0.024 µM,1.02
same,viability,[8]; 0.12 µM,0.953
same,viability,[8]; 0.6 µM,0.989
same,viability,[8]; 3 µM,0.889
same,viability,[8]; 15 µM,0.814
same,viability,[9]; 0.024 µM,1.17
same,viability,[9]; 0.12 µM,0.973
same,viability,[9]; 0.6 µM,1.03
same,viability,[9]; 3 µM,0.942
same,viability,[9]; 15 µM,0.818
same,viability,[10]; 0.024 µM,1.03
same,viability,[10]; 0.12 µM,1.03
same,viability,[10]; 0.6 µM,0.952
same,viability,[10]; 3 µM,0.892
same,viability,[10]; 15 µM,0.903
same,viability,[11]; 0.024 µM,0.969
same,viability,[11]; 0.12 µM,0.824
same,viability,[11]; 0.6 µM,0.878
same,viability,[11]; 3 µM,0.807
same,viability,[11]; 15 µM,0.735
same,viability,[12]; 0.024 µM,1.02
same,viability,[12]; 0.12 µM,0.93
same,viability,[12]; 0.6 µM,0.964
same,viability,[12]; 3 µM,0.83
same,viability,[12]; 15 µM,0.811
same,viability,[13]; 0.024 µM,1.12
same,viability,[13]; 0.12 µM,0.952
same,viability,[13]; 0.6 µM,1.01
same,viability,[13]; 3 µM,0.937
same,viability,[13]; 15 µM,0.962
same,viability,[14]; 0.024 µM,0.948
same,viability,[14]; 0.12 µM,0.974
same,viability,[14]; 0.6 µM,0.926
same,viability,[14]; 3 µM,0.938
same,viability,[14]; 15 µM,0.775
same,viability,[15]; 0.024 µM,1.09
same,viability,[15]; 0.12 µM,0.954
same,viability,[15]; 0.6 µM,1.16
same,viability,[15]; 3 µM,0.918
same,viability,[15]; 15 µM,1.08
same,viability,[16]; 0.024 µM,0.965
same,viability,[16]; 0.12 µM,0.976
same,viability,[16]; 0.6 µM,0.975
same,viability,[16]; 3 µM,0.959
same,viability,[16]; 15 µM,0.899
same,viability,[17]; 0.024 µM,0.968
same,viability,[17]; 0.12 µM,1.02
same,viability,[17]; 0.6 µM,0.953
same,viability,[17]; 3 µM,1.08
same,viability,[17]; 15 µM,1.01
same,viability,[18]; 0.024 µM,1.05
same,viability,[18]; 0.12 µM,0.939
same,viability,[18]; 0.6 µM,1.03
same,viability,[18]; 3 µM,0.972
same,viability,[18]; 15 µM,1.02
same,viability,[19]; 0.024 µM,0.915
same,viability,[19]; 0.12 µM,0.951
same,viability,[19]; 0.6 µM,0.854
same,viability,[19]; 3 µM,0.859
same,viability,[19]; 15 µM,0.702
same,viability,[20]; 0.024 µM,1.05
same,viability,[20]; 0.12 µM,0.898
same,viability,[20]; 0.6 µM,1.05
same,viability,[20]; 3 µM,0.912
same,viability,[20]; 15 µM,0.931
